From publication PMC9037210, “Novel 3-(6-methylpyridin-2-yl)coumarin-based chalcones as selective inhibitors of cancer-related carbonic anhydrases IX and XII endowed with anti-proliferative activity” (Journal of Enzyme Inhibition and Medicinal Chemistry, 2022)

How the values were obtained:
U251 = assay: NCI five dose assay, U251; format: cell-based, human
Method: (§1) MPC 5l was then chosen for additional biological evaluation in a five-dose (0.01–100 µM) experiment. MPC 5l's GI50, TGI, and LC50 response parameters were obtained for each of the cancer cell lines studied. TGI represents cytostatic impact, whereas GI50 values reflect the extent of growth inhibitory effect. Furthermore, the LC50 parameter is regarded as the cytotoxicity parameter for the hybrid under investigation.
(§2) The anticancer test was conducted using the methods of the Drug Evaluation Branch, National Cancer Institute, Bethesda, MD, using 59 human tumour cell lines derived from nine human tissues. The GI50, TGI, and LC50 dose-response parameters were calculated for each medication.

SNB-19 = assay: NCI single (10 µM) dose SRB screening, SNB-19; format: cell-based, human; conditions: 10 µM single dose, SNB-19, CNS cancer
Method: (§3) Following NCI protocol, sixteen MPCs were screened for their potential in vitro anticancer effects against human 59 cancer cell panels including prostate, leukaemia melanoma, colon, breast, CNS, renal, NSCLC, and ovarian cancers by National Cancer Institute (USA)[30].
(§4) The antiproliferative activities of MPC 3 and MPCs 5a–o were first evaluated in a 10 µM dose assay, with SRB assay used to determine cell survival and proliferation. […] The results of the cell growth inhibitory activities for MPCs 5g and 5l towards the different treated tumour cell lines were presented as GI% and presented in Table 3.
as §2

BT-549 = assay: NCI single (10 µM) dose SRB screening, BT-549; format: cell-based, human; conditions: 10 µM single dose, BT-549, Breast cancer
Method: as §3, §4, §2

HCT-116 = assay: NCI five dose assay, HCT-116; format: cell-based, human; conditions: HCT-116, Colon cancer
Method: as §1, §2

SW-620 [1] = assay: NCI single (10 µM) dose SRB screening, SW-620; format: cell-based, human; conditions: 10 µM single dose, SW-620, Colon cancer
Method: as §3, §4, §2

LOX IMVI = assay: NCI five dose assay, LOX IMVI; format: cell-based, human; conditions: Melanoma
Method: as §1, §2

SW-620 [2] = assay: NCI five dose assay, SW-620; format: cell-based, human; conditions: SW-620, Colon cancer
Method: as §1, §2

T-47D = assay: NCI single (10 µM) dose SRB screening, T-47D; format: cell-based, human; conditions: 10 µM single dose, Breast cancer
Method: as §3, §4, §2

K-562 = assay: NCI five dose assay, K-562; format: cell-based, human
Method: as §1, §2

SR = assay: NCI five dose assay, SR; format: cell-based, human; conditions: Leukaemia
Method: as §1, §2

[3] = test system: fifty-nine cancer cell lines; assay: full NCI panel five dose assay, whole panel; format: cell-based; conditions: five-dose (0.01–100 µM)
Method: as §1, §2

hCA XII = molecular target: T1, hCA XII (Homo sapiens, UniProt O43570); assay: stopped-flow CO2 hydrase assay, hCA XII; format: biochemical; conditions: for Selectivity index (SI) (KI off-target CA/KI target CA) Towards hCA XII: ratio of KI for hCA I and II relative to hCA XII; for Ki: stopped-flow, incubation time of 6 h, mean of three assays, read-out: KI CA XII
T1 construct: made in house
T1 sequence (O43570 25-354): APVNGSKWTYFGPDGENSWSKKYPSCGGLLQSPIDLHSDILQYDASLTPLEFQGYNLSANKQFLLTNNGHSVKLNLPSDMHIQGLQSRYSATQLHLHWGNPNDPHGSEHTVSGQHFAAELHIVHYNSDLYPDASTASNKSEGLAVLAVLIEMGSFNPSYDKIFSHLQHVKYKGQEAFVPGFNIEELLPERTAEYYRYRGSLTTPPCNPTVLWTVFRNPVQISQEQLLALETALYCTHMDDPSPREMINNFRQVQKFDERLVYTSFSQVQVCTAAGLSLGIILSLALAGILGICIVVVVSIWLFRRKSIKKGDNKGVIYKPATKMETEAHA
Method: The newly synthesised MPCs (3 and 5a–o) were assessed for their CA inhibition activity employing the stopped-flow CO2 hydrase assay[29] for constitutional hCA (I/II) isoforms and cancer-linked hCA (IX/XII) isoforms.
The CA inhibition activity for the herein reported MPC derivatives was evaluated against the hCA isoforms I, II, IX, and XII using stopped-flow CO2 hydrase test[7]^,[33–36] (see the Supplementary Material).
Carbonic anhydrase inhibition assay
The carbonic anhydrase catalyzed CO2 hydration actions for all coumarin-based […]
Photophysics stopped-flow. The enzymes are recombinant proteins prepared in our lab. Phenol red (at a concentration of 0.2 mM) has been used as indicator, working at […]
mM Na2SO4 (for maintaining constant the ionic strength), following the initial rates of the CA-catalyzed CO2 hydration reaction for a period of 10-100 s. The CO2 concentrations ranged from 1.7 to 17 mM for the determination of the kinetic parameters and inhibition constants. For each inhibitor at least six traces of the initial 5-10% of the reaction have been used for determining the initial velocity. The uncatalyzed rates were determined in the same manner and subtracted from the total observed rates. Stock solutions of inhibitor (0.1 mM) were prepared in distilled-deionized water and dilutions up to 0.01 nM were done thereafter with the assay buffer. Inhibitor and enzyme solutions were preincubated together for 6 hrs. at room temperature prior to assay, in order to allow for the formation of the E-I complex. The inhibition constants were obtained by non-linear least-squares methods using PRISM 3 and the Cheng-Prusoff equation, and represent the mean from at least three different

RPMI-8226 = assay: NCI five dose assay, RPMI-8226; format: cell-based, human; conditions: RPMI-8226, Leukaemia
Method: as §1, §2

MDA-MB-468 = assay: NCI single (10 µM) dose SRB screening, MDA-MB-468; format: cell-based, human; conditions: 10 µM single dose, MDA-MB-468, Breast cancer
Method: as §3, §4, §2

HOP-92 = assay: NCI five dose assay, HOP-92; format: cell-based, human; conditions: HOP-92, NSC lung cancer
Method: as §1, §2

MCF7 = assay: NCI five dose assay, MCF7; format: cell-based, human; conditions: MCF7, Breast cancer
Method: as §1, §2

[4] = test system: 59 human tumour cell lines; assay: NCI single (10 µM) dose screening, whole panel; format: cell-based; conditions: 10 µM single dose; for Sensitive cells no.: number of the 59 cell lines with GI % more than 20%; for inhibition at 10 µM: Homo sapiens, SRB assay, mean over NCI panel, read-out: mean percentage growth inhibition (mean% GI)
Method: as §3, §4, §2

NCI-H226 = assay: NCI single (10 µM) dose SRB screening, NCI-H226; format: cell-based, human; conditions: 10 µM single dose, NCI-H226, NSC lung cancer
Method: as §3, §4, §2

[5] = Homo sapiens, read-out: IC50 (the source's name)

## Cc1nc(-c2cc3ccccc3oc2=O)ccc1C(=O)/C=C/c1ccccn1 [Compound 5l, 3-(6-Methyl-5-[(2E)-3-(pyridin-2-yl)prop-2-enoyl]pyridin-2-yl)-2H-chromen-2-one]
U251; Homo sapiens, U-251, U251, CNS cancer
  GI50: 8.49 µM
U251; Homo sapiens, U-251, U251, CNS cancer, read-out: IC50 (the source's name)
  LC50: > 100 µM
U251; U251, CNS cancer
  TGI: >100 µM
SNB-19
  GI %: 28%
BT-549
  GI %: – (Only GI % more than 20% are displayed.)
HCT-116
  TGI: >100 µM
HCT-116; Homo sapiens
  GI50: 6.34 µM
HCT-116; [5]
  LC50: > 100 µM
SW-620 [1]
  GI %: 98%
LOX IMVI; Homo sapiens
  GI50: 3.2 µM
LOX IMVI; [5]
  LC50: > 100 µM
LOX IMVI
  TGI: >100 µM
SW-620 [2]; Homo sapiens
  GI50: 6.77 µM
SW-620 [2]; [5]
  LC50: > 100 µM
SW-620 [2]
  TGI: >100 µM
T-47D
  GI %: 47%
K-562; Homo sapiens, K562, K-562, Leukaemia
  GI50: 6.47 µM
K-562; Homo sapiens, K562, K-562, Leukaemia, read-out: IC50 (the source's name)
  LC50: > 100 µM
K-562; K-562, Leukaemia
  TGI: >100 µM
SR; Homo sapiens
  GI50: 5.3 µM
SR; [5]
  LC50: > 100 µM
SR
  TGI: >100 µM
[3]; Homo sapiens, all cancer cells, read-out: LC50 (the source's name)
  CC50: > 100 µM
[3]; Homo sapiens, remaining cancer cells (other than the nine of Table 4)
  GI50: > 100 µM
[3]; all cancer cell lines
  TGI: > 100 µM
hCA XII
  Selectivity index (SI) (KI off-target CA/KI target CA) Towards hCA XII: >108.70
  Ki: 0.92 µM
RPMI-8226; Homo sapiens
  GI50: 3.41 µM
RPMI-8226; [5]
  LC50: > 100 µM
RPMI-8226
  TGI: >100 µM
MDA-MB-468
  GI %: 39%
HOP-92
  TGI: >100 µM
HOP-92; Homo sapiens
  GI50: 7.25 µM
HOP-92; [5]
  LC50: > 100 µM
MCF7; Homo sapiens
  GI50: 3.72 µM
MCF7; [5]
  LC50: > 100 µM
MCF7
  TGI: >100 µM
[4]
  Sensitive cells no.: 42
  inhibition at 10 µM: 50%
NCI-H226
  GI %: – (Only GI % more than 20% are displayed.)

## Cc1nc(-c2cc3ccccc3oc2=O)ccc1C(=O)/C=C/c1ccc(N2CCOCC2)cc1 [Compound 5g, 3-(6-Methyl-5-[(2E)-3-[4-(morpholin-4-yl)phenyl]prop-2-enoyl]pyridin-2-yl)-2H-chromen-2-one]
BT-549
  GI %: 23%
SW-620 [1]
  GI %: – (Only GI % more than 20% are displayed.)
T-47D
  GI %: – (Only GI % more than 20% are displayed.)
hCA XII
  Selectivity index (SI) (KI off-target CA/KI target CA) Towards hCA XII: >55.56
  Ki: 1.8 µM
MDA-MB-468
  GI %: 54%
[4]
  Sensitive cells no.: 31
  inhibition at 10 µM: 28%
NCI-H226
  GI %: – (Only GI % more than 20% are displayed.)
